Reference: PMC7703437, “In Vitro Hepatic Metabolism of Curcumin Diethyl Disuccinate by Liver S9 from Different Animal Species” (Frontiers in Pharmacology, 2020)
Like-named read-outs stand apart in the source and are kept apart here. One block for each molecule: values may come before it.

What was measured:
[1] = test system: hepatic esterases of HLS9; assay: Identification of hepatic esterases by chemical inhibition, curcumin formation rate, HLS9; settings: inhibitor 100 μM (EDTA 1 mM), preincubated 30 min at 37°C, HLS9 0.02 mg/ml, CDD 3 µM, 1 min
[2] = test system: hepatic esterases of MLS9; assay: Identification of hepatic esterases by chemical inhibition, curcumin formation rate, MLS9; settings: inhibitor 100 μM (EDTA 1 mM), preincubated 30 min at 37°C, MLS9 0.02 mg/ml, CDD 3 µM, 0.5 min
[3] = test system: LS9 from all tested species (HLS9, MLS9, DLS9, RLS9); assay: In vitro metabolism profiling of CDD, statements for LS9 from all tested species; assay type: in vitro ADME, human, monkey, dog, rat
Method: (§1) The metabolism profiles of CDD were investigated against HLS9, MLS9, DLS9, and RLS9. A stock solution of CDD was prepared at 150 µM in 50% acetonitrile in water before use. The metabolism study was initiated by spiking 735 µl of preincubated LS9 with 15 µl of CDD stock solution, and the mixture was subsequently incubated at 37°C. The final concentrations of CDD and LS9 were 3 μM and 1 mg/ml, respectively. A 50-µl aliquot from the mixture was collected at 0.5, 1, 2, 3, 4, 5, 10, 15, 30, 45, 60, 90, and 120 min and immediately mixed with 100 µl of ice-cold acetonitrile containing 0.45 µM of internal standard DMC to terminate the metabolic reaction. […] The sample at the initial time point (0 min) was prepared as the other samples, except that heat-inactivated HLS9, MLS9, DLS9, and RLS9 (80°C for 20 min; 1 mg/ml protein) were used.
(§2) The UHPLC system consisted of an Agilent series 1290 quaternary pump with an online degasser, autosampler, column oven, and diode array detector. The mobile phase was composed of (A) 0.1% (v/v) formic acid in acetonitrile and (B) 0.1% (v/v) formic acid in water. Each solution was filtered through a nylon filter (pore size, 0.22 µm; MS® Membrane Filters; Membrane Solutions, United States) before use. The mobile phase flow rate was kept at 1.2 ml/min in a gradient mode using the following elution program: 0–3.0 min, initial A-B (40:60, v/v); 4.5–7.0 min, isocratic elution A-B [50:50, (v/v); 8.5–11.0 min, isocratic elution A-B (60:40, v/v); and 12.0–17.0 min, isocratic elution A-B (40:60, v/v)]. CDD, curcumin, and MSCUR in the supernatant were partitioned using a C8 column (4.6 mm × 50 mm, 2.7 µm; HALO, Advanced Materials Technology, United States) with reference to DMC. The detection wavelength was set at 400 nm (λ max(CDD) = 400 nm, λ max(curcumin) = 427 nm, λ max(MSCUR) = 418 nm, and λ max(DMC) = 421 nm). The column was maintained at 35°C throughout the run, and the supernatant injection volume was set at 20 µl.
The concentrations of CDD, curcumin, and MSCUR in the supernatant were determined from the standard plots, which were prepared by spiking individual working solutions of the compounds to heat-inactivated HLS9, MLS9, DLS9, and RLS9 ([Alcorn et al., 2007]; [Montoro-Garcia et al., 2009]; [Singh et al., 2010]). […]
The following equations were adopted to describe the changes in CDD and MSCUR content over time (t): A = A0e^−k1t (2) B= k1A0/k2−k1(e^−k1t−e^−k2t), (3) where A0 is the CDD concentration at time 0, k 1 is the degradation rate constant of CDD, and k 2 is the degradation rate constant of MSCUR. k 1 and k 2 were determined by using Eqs. […] The half-life (t 1/2) was calculated using Eq. 4: t1/2=0.693/k (4)

[4] = enzymatic hydrolysis, cited from earlier work
[5] = test system: rat LS9 (RLS9; Sprague–Dawley); assay: In vitro metabolism profiling of CDD in rat liver S9 (1 mg/ml); assay type: in vitro ADME
Method: as §1, §2
(§3) The concentrations of CDD, curcumin, and MSCUR in the supernatant were determined from the standard plots, which were prepared by spiking individual working solutions of the compounds to heat-inactivated HLS9, MLS9, DLS9, and RLS9 ([Alcorn et al., 2007]; [Montoro-Garcia et al., 2009]; [Singh et al., 2010]). These working standards were extracted with 100 µl of ice-cold acetonitrile containing 0.45 µM of DMC and then 120 μl of the supernatant was diluted with 40 μl of water prior to the UHPLC analysis. The peak area ratios of CDD, curcumin, and MSCUR to the internal standard were computed against linear concentration ranges of 0.025–4.5 µM CDD, 0.025–4.5 µM curcumin, and 0.0125–0.75 µM MSCUR, respectively, with the coefficient of determination (r^2) values greater than 0.99.
(§4) The percent content of CDD and the metabolites formed upon its incubation with LS9, namely, curcumin and MSCUR, was plotted against incubation time.
(§5) The following equations were adopted to describe the changes in CDD and MSCUR content over time (t): A = A0e^−k1t (2) B= k1A0/k2−k1(e^−k1t−e^−k2t), (3) where A0 is the CDD concentration at time 0, k 1 is the degradation rate constant of CDD, and k 2 is the degradation rate constant of MSCUR. k 1 and k 2 were determined by using Eqs. 2 and 3, respectively, with nonlinear regression analysis using the SOLVER function of Microsoft Excel for Office 365 MSO (16.0.12527.20986) ([Brown, 2001]). The half-life (t 1/2) was calculated using Eq. 4: t1/2=0.693/k (4)
(§6) The in vitro intrinsic clearance (CLint,in vitro) of CDD and MSCUR in LS9 was calculated using Eq. 5: CLint, in vitro= k × [V]incubation(ml)/[P]incubation(mg protein), (5) where [V]incubation is the incubation volume in ml, and [P]incubation is the amount of LS9. […]

[6] = as above; assay type: in vitro ADME, rat (Sprague–Dawley); settings: Sprague-Dawley, liver S9; rat LS9 1 mg/ml; read-out: t 1/2 (MSCUR)
Method: as §1, §2, §3, §4, §5, §6

human LS9 (HLS9; pooled) = assay: In vitro metabolism profiling of CDD in human liver S9 (1 mg/ml); assay type: in vitro ADME
Method: as §1, §2, §3, §4, §5, §6

[7] = as above; assay type: in vitro ADME; settings: pooled liver S9; human LS9 1 mg/ml; read-out: t 1/2 (MSCUR)
Method: as §1, §2, §3, §4, §5, §6

[8] = In vitro metabolism profiling of CDD in dog liver S9 (1 mg/ml); assay type: in vitro ADME, dog (beagle); settings: beagle, liver S9; dog LS9 1 mg/ml; read-out: t 1/2 (MSCUR)
Method: as §1, §2, §3, §4, §5, §6

dog LS9 (DLS9; beagle) = assay: as above; assay type: in vitro ADME
Method: as §1, §2, §3, §4, §5, §6

[9] = In vitro metabolism profiling of CDD in monkey liver S9 (1 mg/ml); assay type: in vitro ADME, monkey (cynomolgus); settings: liver S9; monkey LS9 1 mg/ml; read-out: t 1/2 (MSCUR)
Method: as §1, §2, §3, §4, §5, §6

[10] = test system: monkey LS9 (MLS9; cynomolgus); assay: as above; assay type: in vitro ADME
Method: as §1, §2, §3, §4, §5, §6

Molecule: O=C(O)c1cc(SSc2ccc([N+](=O)[O-])c(C(=O)O)c2)ccc1[N+](=O)[O-] [DTNB, 5,5′-dithiobis (2-nitrobenzoic acid)]
inhibition of CDD hydrolysis in HLS9 (relative curcumin formation rate) [1]: to a lesser extent | inhibition of CDD hydrolysis in MLS9 (relative curcumin formation rate) [2]: no enzyme inhibitory effects

Molecule: O=C([O-])c1cc[c]([Hg][OH])cc1.[Na+] [PCMB, 4-(hydroxymercurio) benzoic acid sodium salt]
inhibition of CDD hydrolysis in HLS9 (relative curcumin formation rate) [1]: inhibited | inhibition of CDD hydrolysis in MLS9 (relative curcumin formation rate) [2]: no enzyme inhibitory effects

Molecule: CN(C)C(=O)C(CCN1CCC(O)(c2ccc(Cl)cc2)CC1)(c1ccccc1)c1ccccc1 [loperamide]
inhibition of CDD hydrolysis in HLS9 (relative curcumin formation rate) [1]: inhibited

Molecule: O=C(O)CN(CCN(CC(=O)O)CC(=O)O)CC(=O)O [EDTA, ethylenediaminetetraacetic acid]
inhibition of CDD hydrolysis in MLS9 (relative curcumin formation rate) [2]: no enzyme inhibitory effects

Molecule: C[C@@H]1CC[C@@]2(OC1)O[C@H]1[C@@H](O)[C@H]3[C@@H]4CC[C@H]5C[C@@H](O[C@@H]6O[C@H](CO)[C@H](O[C@@H]7O[C@H](CO)[C@@H](O)[C@H](O[C@@H]8OC[C@@H](O)[C@H](O)[C@H]8O)[C@H]7O[C@@H]7O[C@H](CO)[C@H](O)[C@H](O[C@@H]8O[C@H](CO)[C@@H](O)[C@H](O)[C@H]8O)[C@H]7O)[C@H](O)[C@H]6O)[C@H](O)C[C@]5(C)[C@H]4CC[C@]3(C)[C@H]1[C@@H]2C [digitonin]
inhibition of CDD hydrolysis in HLS9 (relative curcumin formation rate) [1]: inhibited

Molecule: curcumin
curcumin (M1) produced ([3]; following 15 min of incubation of CDD 3 µM in each LS9): ~70%

Molecule: CC(C)NP(=O)(NC(C)C)OP(=O)(NC(C)C)NC(C)C [iso-OMPA, tetra(monoisopropyl) pyrophosphortetramide]
inhibition of CDD hydrolysis in HLS9 (relative curcumin formation rate) [1]: to a lesser extent

Molecule: O=[N+]([O-])c1ccc(OP(=O)(O)Oc2ccc([N+](=O)[O-])cc2)cc1 [BNPP, Bis(4-nitrophenyl) phosphate]
inhibition of CDD hydrolysis in HLS9 (relative curcumin formation rate) [1]: inhibited | inhibition of CDD hydrolysis in MLS9 (relative curcumin formation rate) [2]: inhibited

Molecule: COC(=O)[C@H](c1ccccc1Cl)N1CCc2sc(OC(C)=O)cc2C1 [vicagrel]
t 1/2 ([4]; ref Qiu et al., 2016): approximately 1.6 min

CLint, in vitro(MSCUR) of RLS9 lower than that of HLS9 ([5]; RLS9 vs HLS9): 0.8 fold | CLint, in vitro(MSCUR) ([5]; rat LS9): 9.66 ± 0.60 ml min^−1 mg protein^−1 | k 2 (MSCUR) ([5]; rat LS9 1 mg/ml, CDD 3 µM, 37°C): 9.66 ± 0.60 min⁻¹ | CLint, in vivo(MSCUR) ([5]; rat, scaled from CLint,in vitro): 2,805.37 ± 174.76 L h^−1 kg^−1 | half-life at 3 µM [6]: 4.314 ± 0.00264 s | CLint, in vitro(MSCUR) (human LS9 (HLS9; pooled); human LS9): 12.07 ± 0.86 ml min^−1 mg protein^−1 | k 2 (MSCUR) (human LS9 (HLS9; pooled); human LS9 1 mg/ml, CDD 3 µM, 37°C): 12.07 ± 0.86 min⁻¹ | CLint, in vivo(MSCUR) (human LS9 (HLS9; pooled); human, scaled from CLint,in vitro): 2,251.20 ± 161.06 L h^−1 kg^−1 | half-life [7]: 3.456 ± 0.00252 s | half-life at 3 µM [8]: 1.704 ± 0.0018 s | CLint, in vitro(MSCUR) of DLS9 higher than that of HLS9 (dog LS9 (DLS9; beagle); DLS9 vs HLS9): approximately two | CLint, in vitro(MSCUR) (dog LS9 (DLS9; beagle); dog LS9): 24.61 ± 2.55 ml min^−1 mg protein^−1 | k 2 (MSCUR) (dog LS9 (DLS9; beagle); dog LS9 1 mg/ml, CDD 3 µM, 37°C): 24.61 ± 2.55 min⁻¹ | CLint, in vivo(MSCUR) (dog LS9 (DLS9; beagle); dog, scaled from CLint,in vitro): 5,716.98 ± 592.58 L h^−1 kg^−1 | half-life at 3 µM [9]: 2.034 ± 0.00324 s | CLint, in vitro(MSCUR) of MLS9 higher than that of HLS9 ([10]; MLS9 vs HLS9): ~1.7 fold | CLint, in vitro(MSCUR) ([10]; monkey LS9): 20.79 ± 3.13 ml min^−1 mg protein^−1 | k 2 (MSCUR) ([10]; monkey LS9 1 mg/ml, CDD 3 µM, 37°C): 20.79 ± 3.13 min⁻¹ | CLint, in vivo(MSCUR) ([10]; monkey, scaled from CLint,in vitro): 4,527.30 ± 682.15 L h^−1 kg^−1 | maximum amount of M2 or MSCUR ([3]; at 0.5 min of incubation of CDD 3 µM in LS9): approximately 10%
Molecule: CCOC(=O)CCC(=O)Oc1ccc(/C=C/C(=O)/C=C(O)/C=C/c2ccc(O)c(OC)c2)cc1OC [MSCUR, monoethylsuccinyl curcumin]

Molecule: CC(C)OC(=O)[C@H](C)N[P@](=O)(OC[C@H]1O[C@@](C#N)(c2ccc3c(N)ncnn23)[C@](C)(O)[C@@H]1OC(=O)C(C)C)Oc1ccccc1 [GS-6620]
t 1/2 ([4]; ref Murakami et al., 2014): approximately 4.0 min

Molecule: O=S(=O)(F)Cc1ccccc1 [PMSF, phenylmethylsulfonyl fluoride]
inhibition of CDD hydrolysis in HLS9 (relative curcumin formation rate) [1]: to a lesser extent

Molecule: C=CC[N+](C)(C)c1ccc(CCC(=O)CCc2ccc([N+](C)(C)CC=C)cc2)cc1.[Br-].[Br-] [1,5-bis(4-allyldimethylammoniumphenyl) pentan-3-one dibromide]
inhibition of CDD hydrolysis in MLS9 (relative curcumin formation rate) [2]: no enzyme inhibitory effects
